Results reported in patent publication US10544083B2, “GPBP inhibition using Q2 peptidomimetics” (FibroStatin, S.L., priority 2009, dated 2020).

target: T1, GPBP (Homo sapiens, UniProt Q9Y5P4); experiment: not given; settings: see U.S. Pat. No. 7,326,768; cited from earlier work
T1 sequence (Q9Y5P4 1-624): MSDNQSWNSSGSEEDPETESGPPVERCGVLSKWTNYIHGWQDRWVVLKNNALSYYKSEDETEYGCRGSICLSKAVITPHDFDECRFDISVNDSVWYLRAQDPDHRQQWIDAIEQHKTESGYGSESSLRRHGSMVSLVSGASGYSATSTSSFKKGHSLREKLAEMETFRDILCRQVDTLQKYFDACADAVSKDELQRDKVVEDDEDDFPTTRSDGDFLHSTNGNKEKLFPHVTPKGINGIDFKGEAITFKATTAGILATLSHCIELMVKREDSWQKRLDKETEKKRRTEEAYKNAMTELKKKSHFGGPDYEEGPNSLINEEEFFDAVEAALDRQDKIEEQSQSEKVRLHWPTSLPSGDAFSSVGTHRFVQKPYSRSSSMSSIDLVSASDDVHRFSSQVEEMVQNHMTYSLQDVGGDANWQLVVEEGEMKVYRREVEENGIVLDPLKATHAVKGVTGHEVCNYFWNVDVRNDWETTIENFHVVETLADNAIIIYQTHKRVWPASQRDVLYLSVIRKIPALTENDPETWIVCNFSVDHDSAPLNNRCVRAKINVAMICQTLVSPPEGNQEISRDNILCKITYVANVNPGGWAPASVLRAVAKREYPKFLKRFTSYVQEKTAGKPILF

Row | Compound | α3(IV)NC1 conformer production by GPBP
1 | LATLSHCIELMVKR [Compound Q2, synthetic peptide representing the five-residue SHCIE motif of GPBP and flanking regions] | reduce α3(IV)NC1 conformer production

target: T2, yeast recombinant FLAG-GPBP (Homo sapiens, UniProt Q9Y5P4); experiment: FLAG-GPBP auto-phosphorylation assay; type: biochemical; settings: 10 μM compound, 5 min at 30° C., autoradiography bands quantified, vehicle = 100; read-out: Relative kinase activity (% referred to vehicle)
T2 construct: FLAG; made in house
T2 sequence (Q9Y5P4 1-624): T1 sequence (Q9Y5P4 1-624)
From the text: Goodpasture antigen-binding protein (GPBP) is a non-conventional Ser/Thr kinase which targets and phosphorylates the non-collagenous (NC1) domain of α3 chain of human type IV collagen [α3(IV)NC1], known as Goodpasture antigen. GPBP expression has been associated with antibody-mediated glomerulonephritis, rheumatoid arthritis and drug-resistance cancer. We have reported that GPBP self-interacts, that aggregation and autophosphorylation regulate kinase activity, and that the Q2 peptide inhibits autophosphorylation and GPBP kinase activity (WO 00/50607). The GPBP kinase inhibitory activity of a number of terphenylic compounds mimicking Q2, a peptide representing a critical GPBP motif which is relevant for GPBP quaternary structure stabilization, have been tested on GPBP autophosphorylation ability The autophosphorylation ability of GPBP has been used to test the GPBP kinase inhibitor activity of several terphenylic compounds (Scheme 18) derived from the chemical structure of Q2 peptide, which in turn represents GPBP peptidic sequence relevant for self-interaction.
Two hundred nanograms of yeast recombinant FLAG-GPBP were subjected to phosphorylation assays in absence (vehicle) or presence of a 10 μM concentration of each of the indicated Q2-peptidomimetic compounds or an intermediate of synthesis used as negative control (C), during 5 min at 30° C. Reactions were subjected to SDS-PAGE, Western blot and autoradiography. The bands in the autoradiography were quantified using Image-Quant TL software. The kinase activity of GPBP in the presence of the indicated compounds was referred to the sample containing the vehicle, which was given a value of 100.
Yeast recombinant FLAG-GPBP production and purification were also performed. GPBP autophosphorylation assay times were limited to 10 min at 30° C.

Row | activity at 10 µM [%] | Compound
2 | 90 | Cc1cccc(-c2ccc(-c3ccc(O)cc3C(C)C)cc2CCC(=O)O)c1 [Compound 2a, 3-[4″-hydroxy-2″-isopropyl-3-methyl-(1,1′;4′,1″)terphenyl-2′-yl]propionic acid]
3 | 49 | COc1ccc(-c2ccc(-c3cccc(C(F)(F)F)c3)c(C(F)F)c2)c(CCC(=O)O)c1 [Compound 22h, 3-[2′-(difluoromethyl)-4″-methoxy-3-(trifluoromethyl)-(1,1′;4′,1″)terphenyl-2″-yl]propionic acid]
4 | 77 | O=C(O)CCc1cc(O)ccc1-c1ccc(-c2cccc(C(F)(F)F)c2)c(C(F)F)c1 [Compound 20b, 3-[2′-(difluoromethyl)-4″-hydroxy-3-(trifluoromethyl)-(1,1′;4′,1″)terphenyl-2″-yl]propionic acid]
5 | 135 | COc1ccc(-c2ccc(-c3cccnc3)c(CF)c2)c(CCC(=O)O)c1 [Compound 22k, 3-[3′-(fluoromethyl)-4-methoxy-4′-(pyridin-3-yl)biphenyl-2-yl]propionic acid]
6 | 132 | COc1ccc(-c2ccc(-c3cccnc3)c(CO)c2)c(CCC(=O)O)c1 [Compound 22i, 3-[3′-(hydroxymethyl)-4-methoxy-4′-(pyridin-3-yl)biphenyl-2-yl]propionic acid]
7 | 136 | COc1ccc(-c2ccc(-c3cccnc3)c(C(F)F)c2)c(CCC(=O)O)c1 [Compound 22l, 3-[3′-(difluoromethyl)-4-methoxy-4′-(pyridin-3-yl)biphenyl-2-yl]propionic acid]
8 | 129 | COc1ccc(-c2ccc(-c3cccc(C(F)(F)F)c3)c(CO)c2)c(CCC(=O)O)c1 [Compound 22e, 3-[2′-(hydroxymethyl)-4″-methoxy-3-(trifluoromethyl)-(1,1′;4′,1″)terphenyl-2″-yl]propionic acid]
9 | 123 | COc1ccc(-c2ccc(-c3cccc(C)c3)c(CF)c2)c(CCC(=O)O)c1 [Compound 22c, 3-[2′-(fluoromethyl)-4″-methoxy-3-methyl-(1,1′;4′,1″)terphenyl-2″-yl]propionic acid]
10 | 131 | O=C(O)CCc1cc(O)ccc1-c1ccc(-c2cccc(C(F)(F)F)c2)c(CO)c1 [Compound 1b, 3-[4″-hydroxy-2′-(hydroxymethyl)-3-(trifluoromethyl)-(1,1′;4′,1″)terphenyl-2″-yl]propionic acid]
11 | 61 | Cc1cccc(-c2ccc(-c3ccc(O)cc3CCC(=O)O)cc2C(F)F)c1 [Compound 20a, 3-[2′-(difluoromethyl)-4″-hydroxy-3-methyl-(1,1′;4′,1″)terphenyl-2″-yl]propionic acid]
12 | 50 | COc1ccc(-c2ccc(-c3cccnc3)c(C)c2)c(CCC(=O)O)c1 [Compound 22j, 3-[4-methoxy-3′-methyl-4′-(pyridin-3-yl)biphenyl-2-yl]propionic acid]
13 | 21 | O=C(O)CCc1cc(O)ccc1-c1ccc(-c2cccc(C(F)(F)F)c2)c(CF)c1 [Compound 15b, 3-[2′-(fluoromethyl)-4″-hydroxy-3-(trifluoromethyl)-(1,1′;4′,1″)terphenyl-2″-yl]propionic acid]
14 | 53 | Cc1cccc(-c2ccc(-c3ccc(O)cc3CCC(=O)O)cc2C)c1 [Compound 12a, 3-[4″-hydroxy-2′,3-dimethyl-(1,1′;4′,1″)terphenyl-2″-yl]propionic acid]
15 | 36 | CCCOc1ccc(-c2ccc(-c3cccc(C(F)(F)F)c3)c(C)c2)c(CCC(=O)O)c1 [Compound 24c, 3-[2′-methyl-4″-propoxy-3-(trifluoromethyl)-(1,1′;4′,1″)terphenyl-2″-yl]propionic acid]
16 | 44 | COc1ccc(-c2ccc(-c3cccc(C)c3)c(C)c2)c(CCC(=O)O)c1 [Compound 22b, 3-[4″-methoxy-3,2′-dimethyl-(1,1′;4′,1″)terphenyl-2″-yl]propionic acid]
17 | 34 | Cc1cccc(-c2ccc(-c3ccc(O)cc3CCC(=O)O)cc2CO)c1 [Compound 1a, 3-[4″-hydroxy-2′-(hydroxymethyl)-3-methyl-(1,1′;4′,1″)terphenyl-2″-yl]propionic acid]
18 | 118 | COc1ccc(-c2ccc(-c3cccc(C)c3)c(CO)c2)c(CCC(=O)O)c1 [Compound 22a, 3-[2′-(hydroxymethyl)-4″-methoxy-3-methyl-(1,1′;4′,1″)terphenyl-2″-yl]propionic acid]
19 | 58 | O=C(O)CCc1cc(O)ccc1-c1ccc(-c2cccnc2)c(CO)c1 [Compound 1c, 3-[4-hydroxy-3′-(hydroxymethyl)-4′-(pyridin-3-yl)biphenyl-2-yl]propionic acid]
20 | 64 | Cc1cccc(-c2ccc(-c3ccc(OCC(=O)O)cc3CCC(=O)O)cc2C)c1 [Compound 24b, 3-[4″-(carboxymethoxy)-3,2′-dimethyl-(1,1′;4,1″)terphenyl-2″-yl]propionic acid]
21 | 103 | COc1ccc(-c2ccc(-c3cccc(C(F)(F)F)c3)c(CF)c2)c(CCC(=O)O)c1 [Compound 22g, 3-[2′-(fluoromethyl)-4″-methoxy-3-(trifluoromethyl)-(1,1′;4′,1″)terphenyl-2″-yl]propionic acid]
22 | 73 | CCCOc1ccc(-c2ccc(-c3cccc(C)c3)c(C)c2)c(CCC(=O)O)c1 [Compound 24a, 3-[3,2′-dimethyl-4″-propoxy-(1,1′;4′,1″)terphenyl-2″-yl]propionic acid]
23 | 41 | COc1ccc(-c2ccc(-c3cccc(C(F)(F)F)c3)c(C)c2)c(CCC(=O)O)c1 [Compound 22f, 3-[2′-methyl-4″-methoxy-3-(trifluoromethyl)-(1,1′;4′,1″)terphenyl-2″-yl]propionic acid]
24 | 49 | Cc1cc(-c2ccc(O)cc2CCC(=O)O)ccc1-c1cccc(C(F)(F)F)c1 [Compound 12b, 3-[4″-hydroxy-2′-methyl-3-(trifluoromethyl)-(1,1′;4′,1″)terphenyl-2″-yl]propionic acid]
25 | 79 | Cc1cccc(-c2ccc(-c3ccc(O)cc3CCC(=O)O)cc2CF)c1 [Compound 15a, 3-[2′-(fluoromethyl)-4″-hydroxy-3-methyl-(1,1′;4′,1″)terphenyl-2″-yl]propionic acid]
26 | 79 | COc1ccc(-c2ccc(-c3cccc(C)c3)c(C(F)F)c2)c(CCC(=O)O)c1 [Compound 22d, 3-[2′-(difluoromethyl)-4″-methoxy-3-methyl-(1,1′;4′,1″)terphenyl-2″-yl]propionic acid]
27 | 28 | COc1ccc(-c2ccc(-c3ccc(OC)c(C)c3)c(C)c2)c(CCC(=O)O)c1 [Compound 32, 3-[4,4″-dimethoxy-3,2′-dimethyl-(1,1′;4′,1″)terphenyl-2″-yl]propionic acid]

target: T1, GPBP; experiment: not given; settings: see U.S. Pat. No. 7,326,768; cited from earlier work; remark: another data set of the same source

Row | Compound | inhibition of GPBP autophosphorylation
28 | LATLSHCIELMVKR [Compound Q2, synthetic peptide representing the five-residue SHCIE motif of GPBP and flanking regions] | efficiently inhibited GPBP autophosphorylation
